Laboratory results: US11197836B2, “Topical vasoconstrictor preparations and methods for protecting cells during cancer chemotherapy and radiotherapy” (WISCONSIN ALUMNI RESEARCH FOUNDATION, priority 2005, dated 2021)
Entries after “also recorded” stand apart in the source; their conditions may differ. Counter-ions that a name gives are not always drawn. Like-named read-outs stand apart in the source and are kept apart here.

What was measured:
coat density = details: ten-day old Sprague-Dawley rats
Procedure: On day 20 of life, coat density on the dorsal back of each animal was visually scored as a percentage of the normal coat density for an untreated 20 day old rat. At 30 μg/gm b.w.

[1] = blood plasma, following intravenous infusion or oral administration; cited from earlier work
human skin [2] = details: for Skin Blanch Response: human arm skin, 180 min
[3] = tested on: radiation-induced oral mucositis; assay: Radiation-induced oral mucositis in hamster cheek pouch, Example 16; details: hamster cheek pouch
[4] = Dissolution and 24 hr solution status of vasoconstrictor salts in ethanol:PG:water diluents, Example 6; assay type: physicochemical; details: at the concentrations required to induce an acceptable blanch response
Procedure: Aliquots of each vasoconstrictor salt were weighed into glass test tubes. The volume of liquid necessary to achieve the indicated final drug concentration was then added.
(§1) The approximate amount of heat required to dissolve the vasoconstrictor salt in each diluent is indicated. Once diluted, samples were sealed and held at room temperature (22° C.) for 24 hours and then at 4° C. for 24 hours. Skin blanch induced by the topical formulation was assessed by applying freshly made, clear formulation to human skin shortly after initial mixing. Drug solutions were monitored for the appearance of precipitated material over a 48 hour observation period.

cheek pouch oral mucosa = assay: Blanch response of hamster cheek pouch oral mucosa, Example 15; assay type: in vivo, Syrian Golden hamster; details: 10 mM in 5:1:94 ethanol:HPMC:PBS, after 30 min
Procedure: Hamsters were anesthetized with sodium pentobarbital, the cheek pouch was everted with forceps, rinsed with water and blotted, and immobilized on a 2 cm diameter inert plastic disk using stainless steel clips (see panels in FIG. 11). […] Digital images were recorded.

[5] = tested on: radiation-induced oral mucositis; details: 12.3 mM, vehicle 0:5:3:92, irradiation 24 min, Experiment B, score 0-17, day 16
Procedure: In an assay based upon Alvarez eta/. […] Additional topical formulation was applied with Q-tip to uniformly cover the everted, interior surface of the cheek pouch. After 20 min, the vehicle-coated, immobilized cheek pouch was taped into position over a 1.5 cm diameter window bored through a 2.5 cm thick lead plate. The sleeping hamster was immobilized on a small shelf on the plate that enabled cheek pouch irradiation through the window.
After irradiation, the cheek pouch was rinsed with water, blotted and reverted. The severity of mucositis in the irradiated cheek pouch was scored 16 days later using the following criteria.

human skin [6] = assay: Human skin blanch 20 min after topical application, Example 6; assay type: in vivo; details: applied to unbroken human skin
Procedure: as §1

| Structure (SMILES) | coat on day 20 (coat density; 20 μg/gm b.w. and lower doses i.p.) | coat on day 20 (coat density; 30 μg/gm b.w. and higher doses i.p.) | clearance half-life [1] | Skin Blanch Response (human skin [2]; 30 mM in 60:30:10 vehicle) | Skin Blanch Response (human skin [2]; 150 mM in 60:30:10 vehicle) | Skin Blanch Response (human skin [2]; 0.25% (12.3 mM) in water) | blanching of the skin (human skin [2]; 0.25% aqueous solution, human skin, over the 180 min observation period) | Skin Blanch Response (human skin [2]; 300 mM in 60:30:10 vehicle) | Skin Blanch Response (human skin [2]; 1000 mM in 60:30:10 vehicle) | Skin Blanch Response (human skin [2]; 2500 mM in 60:30:10 vehicle) | protection against γ radiation-induced mucositis ([3]; 10 mM topical) | mucosal pathology ([3]; large excess doses combined with 24 min of irradiation (40 Gy)) | mucosal pathology ([3]; large excess doses without irradiation) | solubility in topical vehicles [4] | appearance of cheek pouch (blanch) (cheek pouch oral mucosa) | Muscositis Severity Score [5] | potency to induce skin blanch (human skin [6]) |
| --- | --- | --- | --- | --- | --- | --- | --- | --- | --- | --- | --- | --- | --- | --- | --- | --- | --- |
| O=P1(N(CCCl)CCCl)NCCCO1 (centres unmarked) [Cytoxan, cyclophosphamide] | full coats | nude | about one |  |  |  |  |  |  |  |  |  |  |  |  |  |  |
| CNC[C@H](O)c1cccc(O)c1 [phenylephrine, phenylephrine-HCl] |  |  |  | 0% | 35% | 0% | no detectable blanching | 50% | 60% | 70% | completely protective; also recorded: completely preventing | severe mucosal pathology | no discernible mucosal pathology | not stably soluble | white and translucent | 5.0 ± 0.1 | lacks the potency to adequately induce skin blanch |
